Values of other authors as cited in patent US20040228911A1, “Vinorelbine compositions and methods of use” (NeoPharm, Inc., priority 2001, published 2004).
Counter-ions that a name gives are not always drawn.

Legend:
[1] = distilled water
[2] = system: mitotic microtubules; settings: intact tectal plates from mouse embryos
[3] = system: axonal microtubules; settings: intact tectal plates from mouse embryos

CCC1=C[C@@H]2CN(C1)Cc1c([nH]c3ccccc13)[C@@](C(=O)OC)(c1cc3c(cc1OC)N(C)[C@H]1[C@@](O)(C(=O)OC)[C@H](OC(C)=O)[C@]4(CC)C=CCN5CC[C@]31[C@@H]54)C2 [Vinorelbine tartrate, 3′,4′-didehydro-4′-deoxy-C-norvincaleukoblastine [R—(R,R)-2,3-dihydroxybutanedioate (1:2)(salt)]]
aqueous solubility [1]: less than 1000 mg/mL

CC[C@]1(O)C[C@@H]2CN(CCc3c([nH]c4ccccc34)[C@@](C(=O)OC)(c3cc4c(cc3OC)N(C)[C@H]3[C@@](O)(C(=O)OC)[C@H](OC(C)=O)[C@]5(CC)C=CCN6CC[C@]43[C@@H]65)C2)C1 [vinblastine]
concentration inhibiting mitotic microtubule formation, inducing a blockade of cells at metaphase [2]: 2 µM | concentration producing depolymerization of axonal microtubules [3]: 30 µM

CC[C@]1(O)C[C@H]2CN(CCc3c([nH]c4ccccc34)[C@@](C(=O)OC)(c3cc4c(cc3OC)N(C=O)[C@H]3[C@@](O)(C(=O)OC)[C@H](OC(C)=O)[C@]5(CC)C=CCN6CC[C@]43[C@@H]65)C2)C1 [vincristine]
concentration inhibiting mitotic microtubule formation, inducing a blockade of cells at metaphase [2]: 2 µM | concentration producing depolymerization of axonal microtubules [3]: 5 µM

CCC1=C[C@@H]2CN(C1)Cc1c([nH]c3ccccc13)[C@@](C(=O)OC)(c1cc3c(cc1OC)N(C)[C@H]1[C@@](O)(C(=O)OC)[C@H](OC(C)=O)[C@]4(CC)C=CCN5CC[C@]31[C@@H]54)C2 [vinorelbine, 3′,4′-didehydro-4′-deoxy-C-norvincaleukoblastine [R—(R,R)-2,3-dihydroxybutanedioate (1:2)(salt)]]
concentration inhibiting mitotic microtubule formation, inducing a blockade of cells at metaphase [2]: 2 µM | concentration producing depolymerization of axonal microtubules [3]: 40 µM
